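Growth conditions: 96-well plates. Treatment: test compound, 48 hours, 5 concentrations. Analysis: linear interpolation between bracketing concentrations; unreached endpoints set to highest concentration. TGI is the concentration that stops growth completely.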
How the values were obtained:
Assay in all cases: NCI tumour cell line growth inhibition, 48 h
[1] = test system: DLD-1 colon
[2] = test system: M14 melanoma
[3] = test system: OVCAR-3 ovarian
[4] = test system: UACC-62 melanoma
[5] = test system: CCRF-CEM leukemia
[6] = test system: TK-10 renal
[7] = test system: U251 CNS
[8] = test system: SK-MEL-28 melanoma
[9] = test system: SF-295 CNS
[10] = test system: HOP-62 NSCLC
[11] = test system: KM20L2 colon
[12] = test system: OVCAR-5 ovarian
[13] = test system: LOX IMVI melanoma
[14] = test system: UACC-257 melanoma
[15] = test system: SK-OV-3 ovarian
[16] = test system: HCT-116 colon
[17] = test system: NCI-H23 lung
[18] = test system: HT29 colon
[19] = test system: HOP-92 NSCLC
[20] = test system: NCI-H460 lung
[21] = test system: RXF 393 renal
[22] = test system: HL-60(TB) leukemia
[23] = test system: KM12 colon
[24] = test system: CAKI-1 renal
[25] = test system: SK-MEL-5 melanoma
[26] = test system: MALME-3M melanoma
[27] = test system: SNB-19 CNS
[28] = test system: A498 renal
[29] = test system: HOP-18 NSCLC
[30] = test system: SR leukemia
[31] = test system: HCT-15 colon
[32] = test system: SNB-75 CNS
[33] = test system: COLO 205 colon
[34] = test system: SK-MEL-2 melanoma
[35] = test system: LXFL 529 NSCLC
[36] = test system: IGROV1 ovarian
[37] = test system: DMS 273 small cell lung
[38] = test system: SF-539 CNS
[39] = test system: MOLT-4 leukemia
[40] = test system: OVCAR-8 ovarian
[41] = test system: NCI-H522 lung
[42] = test system: SN12C renal
[43] = test system: OVCAR-4 ovarian
[44] = test system: DMS 114 small cell lung
[45] = test system: UO-31 renal
[46] = test system: 786-0 renal
[47] = test system: A549 NSCLC
[48] = test system: HCC-2998 colon
[49] = test system: M19-MEL melanoma
[50] = test system: K-562 leukemia
[51] = test system: SW-620 colon
[52] = test system: SF-268 CNS
[53] = test system: ACHN renal
[54] = test system: NCI-H226 lung
[55] = test system: EKVX NSCLC

Measured: TGI

NC(N)=N/N=C/c1oc(-c2ccc(S(=O)(=O)O)o2)c(-c2ccc(S(=O)(=O)O)o2)c1[N+](=O)[O-]
> 100 µM: all assays above

Reference: PubChem BioAssay (NCI)
